Assay results reported in patent publication US20200181284A1, “EPIGENETIC INHIBITORS FOR SENSITIZING HEMATOLOGIC OR OTHER MALIGNANCIES TO GLUCOCORTICOID THERAPY” (UNIVERSITY OF SOUTHERN CALIFORNIA, priority 2017, published 2020).

How the values were obtained:
[1] = test system: GR target genes in NALM6 cells; assay: RT-qPCR of GR target genes in NALM6 cells; format: cell-based, human; details: NALM6 cells, KDM inhibitor
Experimental: RNA was isolated using TRIzol (Invitrogen) according to the manufacturer's instructions. Reverse transcription reaction was performed using Superscript III (ThermoFisher) according to specifications with 1 μg of total RNA as template. Quantitative PCR amplification of the resulting cDNA was performed on a Roche LightCycler 480 using SYBR green I master mix (Roche). mRNA levels were normalized to the level of b-actin mRNA.
FIGS. 40A, 40B, 40C, 40D-1, 40D-2, 40D-3, and 40D-4 show Aurora kinase B inhibitors sensitizing NALM6 cells to GC-induced cell death. As shown in FIGS. 40A and 40B, NALM6 cells were treated with the indicated dex concentration in addition to 0.75 μM ZM447439 (FIG. 40A), 16 nM AZD2811 (FIG. 40B), or equivalent volume of vehicle DMSO for 72 h, and cell survival was measured by a fluorescence metabolic assay. In each condition, the value measured with dex was normalized to the fluorescence value measured with ethanol. Percentage of survival is shown as the mean±SEM of 4 independent experiments and p-values for individual dex concentrations were calculated using a paired t-test. *p≤0.05, **p≤0.01, * * *p≤0.001. F-test comparing the two curves: p≤0.001. Insets show the EC50s that were calculated as the concentration at which half the cells remained alive, compare to vehicle controls. Error bars depict the SEM of 4 independent experiments and p-values were calculated to compare AURKB inhibitor treatment to DMSO using a paired t-test ** p≤0.01, * * *p≤0.001. […] The indicated proteins were then examined by immunoblot. As shown in FIGS. 40D-1, 40D-2, 40D-3, and 40D-4, NALM6 cells pre-treated with AZD2811 (16 nM) or DMSO for 24 h, were then treated for 8 h with 100 nM dex or ethanol. mRNA levels for the indicated GR target genes were measured by RT-qPCR and normalized to β-actin mRNA levels.
FIGS. 54A, 54B, and 54C highlight the GR Target genes that require G9a and GLP as coactivators.

endogenous G9a and GLP = target: T1, endogenous G9a and GLP (Homo sapiens, UniProt Q96KQ7+Q9H9B1); assay: Methylation of endogenous G9a and GLP in A549 cells; format: cell-based; details: 2 μM, 24 h
T1 construct: highlight methylation of endogenous G9a and GLP in A549 cells; endogenous in cells; host or cells: A549
Experimental: (§1) Cos-7 or A549 cells were seeded on 10-cm dishes the day before transfection. Cells were transiently transfected (where indicated) using Lipofectamine 2000 (Invitrogen) with 5 μg each of the indicated plasmids according to the manufacturer's protocol. At 48 h after transfection, cells were treated (or not) with dex for the indicated time period, and cell extracts were prepared in RIPA buffer (50 mM Tris-HCl, pH 8, 150 mM NaCl, 1 mM EDTA, 1% NP-40 and 0.25% deoxycholate) supplemented with protease inhibitor tablets (Roche Molecular Biochemicals) and phosphatase inhibitors (1 mM NaF, 1 mM Na3VO4 and 1 mM β-glycerophosphate). Protein extracts were incubated with 1 μg of the indicated primary antibodies overnight at 4° C. with shaking. Protein A/G Plus Agarose (Santa Cruz sc-2003) beads were added and the mixture was incubated 2 hr at 4° C. The immunoprecipitates were separated on SDS-PAGE. […] In immunoprecipitation experiments 3% of the input of each sample was analyzed by immunoblot using the antibodies listed.
The results as shown in FIGS. 24E-1 and 24E-2 highlight methylation of endogenous G9a and GLP in A549 cells. […] Western-Blot quantification was determined relative to input using ChemiDoc MP (Biorad) to measure chemiluminescence from the immunoblots, and the ratio of the IP signal to the input signal was calculated for each sample.

[2] = test system: G9a and GLP phosphorylation; assay: Phosphorylation of HA-hG9a or HA-hGLP in Cos-7 cells (pan ph-T immunoprecipitation); format: cell-based, monkey; details: 2 μM, 24 h
Experimental: as §1, with “listed. […]” for “listed.”

[3] = test system: interaction between HP1γ and G9a; assay: Co-immunoprecipitation of HA-hG9a with HP1γ in Cos-7 cells; format: cell-based, African green monkey; details: 2 μM, 24 h
Experimental: as §1, with “listed. […]” for “listed.”

Compound: Clc1ccc(N/N=C(\c2ccccc2)c2ccccn2)nc1 [JIB-04, 5-chloro-N-[(E)-[phenyl(pyridin-2-yl)methylidene]amino]pyridin-2-amine]
- dex-induced expression of FKBPS (independent of G9a and GLP) [1]: no effect
- dex-induced expression of G9a/GLP-dependent GR target genes (TXNIP, GILZ, and NFKBIA) [1]: enhanced

Compound: COc1cc2c(NC3CCN(C4CCCCC4)CC3)nc(N3CCCN(C(C)C)CC3)nc2cc1OCCCN1CCCCC1 [UNC0646]
- endogenous level of G9a and GLP (endogenous G9a and GLP): increased
- proportion of G9a and GLP that was methylated (endogenous G9a and GLP): decreased substantially

Compound: COc1cc2c(Nc3ccc(NC(=O)c4ccccc4)cc3)ncnc2cc1OCCCN1CCOCC1 [ZM447439, N-[4-[[6-methoxy-7-(3-morpholin-4-ylpropoxy)quinazolin-4-yl]amino]phenyl]benzamide]
- G9a and GLP phosphorylation signals [2]: decreased
- interaction between HP1γ and G9a [3]: increased
